From ChEMBL document CHEMBL3774345, “Synthesis of new diarylamides with pyrimidinyl pyridine scaffold and evaluation of their anti-proliferative effect on cancer cell lines” (Bioorg Med Chem Lett, 2016)

Tests used:
[1] = Cytotoxicity against human PC3 cells assessed as cell growth at 10^-4 M after 24 hrs by SRB assay; type: functional; details: PC-3, 24 h, read-out: Activity
[2] = Cytotoxicity against human UACC257 cells assessed as cell growth at 10^-6 M after 24 hrs by SRB assay; type: functional; details: UACC-257, 24 h, read-out: Activity
MDA-MB-231 = assay: Cytotoxicity against human MDA-MB-231 cells after 24 hrs by SRB assay; type: functional, cell-based; details: MDA-MB-231, 24 h
[3] = Cytotoxicity against human UACC257 cells assessed as cell growth at 10^-7 M after 24 hrs by SRB assay; type: functional; details: UACC-257, 24 h, read-out: Activity
[4] = Cytotoxicity against human HCC2998 cells assessed as cell growth at 10^-5 M after 24 hrs by SRB assay; type: functional; details: HCC 2998, 24 h, read-out: Activity
[5] = Cytotoxicity against human HOP92 cells assessed as cell growth at 10^-6 M after 24 hrs by SRB assay; type: functional; details: HOP-92, 24 h, read-out: Activity
NCI-H226 [6] = assay: Cytotoxicity against human NCI-H226 cells assessed as cell growth at 10^-4 M after 24 hrs by SRB assay; type: functional; details: NCI-H226, 24 h, read-out: Activity
[7] = Cytotoxicity against human TK10 cells assessed as cell growth at 10^-7 M after 24 hrs by SRB assay; type: functional; details: TK-10, 24 h, read-out: Activity
[8] = Cytotoxicity against human UO31 cells assessed as cell growth at 10^-7 M after 24 hrs by SRB assay; type: functional; details: UO-31, 24 h, read-out: Activity
[9] = Cytotoxicity against human SKOV3 cells assessed as cell growth at 10^-5 M after 24 hrs by SRB assay; type: functional; details: SK-OV-3, 24 h, read-out: Activity
[10] = Cytotoxicity against human BT549 cells assessed as cell growth at 10^-5 M after 24 hrs by SRB assay; type: functional; details: BT-549, 24 h, read-out: Activity
[11] = Cytotoxicity against human SNB19 cells assessed as cell growth at 10^-7 M after 24 hrs by SRB assay; type: functional; details: SNB-19, 24 h, read-out: Activity
NCI-H460 = assay: Cytotoxicity against human NCI-H460 cells assessed as cell growth at 10^-5 M after 24 hrs by SRB assay; type: functional; details: NCI-H460, 24 h, read-out: Activity
[12] = Cytotoxicity against human LOXIMVI cells assessed as cell growth at 10^-6 M after 24 hrs by SRB assay; type: functional; details: LOX IMVI, read-out: Activity
[13] = Cytotoxicity against human IGROV1 cells assessed as cell growth at 10^-6 M after 24 hrs by SRB assay; type: functional; details: IGROV-1, 24 h, read-out: Activity
T47D = assay: Cytotoxicity against human T47D cells assessed as cell growth at 10^-7 M after 24 hrs by SRB assay; type: functional; details: read-out: Activity
EKVX [14] = assay: Cytotoxicity against human EKVX cells assessed as cell growth at 10^-8 M after 24 hrs by SRB assay; type: functional; details: read-out: Activity
U-251 = assay: Cytotoxicity against human U251 cells assessed as cell growth at 10^-7 M after 24 hrs by SRB assay; type: functional; details: U-251, 24 h, read-out: Activity
[15] = Cytotoxicity against human SNB19 cells assessed as cell growth at 10^-8 M after 24 hrs by SRB assay; type: functional; details: SNB-19, 24 h, read-out: Activity
[16] = Cytotoxicity against human UACC62 cells assessed as cell growth at 10^-8 M after 24 hrs by SRB assay; type: functional; details: UACC-62, 24 h, read-out: Activity
[17] = Cytotoxicity against human SF268 cells after 24 hrs by SRB assay; type: functional; details: SF-268, 24 h
[18] = Cytotoxicity against human SW620 cells assessed as cell growth at 10^-6 M after 24 hrs by SRB assay; type: functional; details: SW-620, 24 h, read-out: Activity
[19] = Cytotoxicity against human SW620 cells after 24 hrs by SRB assay; type: functional; details: SW-620, 24 h
[20] = Cytotoxicity against human BT549 cells assessed as cell growth at 10^-8 M after 24 hrs by SRB assay; type: functional; details: BT-549, 24 h, read-out: Activity
[21] = Cytotoxicity against human IGROV1 cells assessed as cell growth at 10^-5 M after 24 hrs by SRB assay; type: functional; details: IGROV-1, 24 h, read-out: Activity
[22] = Cytotoxicity against human HCT116 cells assessed as cell growth at 10^-7 M after 24 hrs by SRB assay; type: functional; details: HCT-116, 24 h, read-out: Activity
SK-MEL-5 = assay: Cytotoxicity against human SK-MEL-5 cells assessed as cell growth at 10^-5 M after 24 hrs by SRB assay; type: functional; details: SK-MEL-5, 24 h, read-out: Activity
[23] = Cytotoxicity against human OVCAR4 cells assessed as cell growth at 10^-5 M after 24 hrs by SRB assay; type: functional; details: OVCAR-4, 24 h, read-out: Activity
NCI-H226 [24] = assay: Cytotoxicity against human NCI-H226 cells after 24 hrs by SRB assay; type: functional; details: NCI-H226, 24 h
[25] = Cytotoxicity against human UO31 cells assessed as cell growth at 10^-5 M after 24 hrs by SRB assay; type: functional; details: UO-31, 24 h, read-out: Activity
Malme-3M = assay: Cytotoxicity against human MALME-3M cells assessed as cell growth at 10^-7 M after 24 hrs by SRB assay; type: functional; details: read-out: Activity
[26] = Cytotoxicity against human HCT116 cells assessed as cell growth at 10^-5 M after 24 hrs by SRB assay; type: functional; details: HCT-116, 24 h, read-out: Activity
[27] = Cytotoxicity against human OVCAR3 cells assessed as cell growth at 10^-7 M after 24 hrs by SRB assay; type: functional; details: OVCAR-3, 24 h, read-out: Activity
KM12 = assay: Cytotoxicity against human KM12 cells assessed as cell growth at 10^-7 M after 24 hrs by SRB assay; type: functional; details: KM12, 24 h, read-out: Activity
EKVX [28] = assay: Cytotoxicity against human EKVX cells after 24 hrs by SRB assay; type: functional
[29] = read-out: LC50 (the source's name)
[30] = read-out: pLC50 (the source's name) (converted)

O=C(Nc1cc(-c2cccnc2)nc(NCCCN2CCOCC2)n1)c1cc(Br)cc(C(F)(F)F)c1
growth at 100 µM [1]: -93%
growth at 1 µM [2]: 113%
IC50 (MDA-MB-231): 1.79 µM
GI50 (MDA-MB-231; read-out: GI50): 1.79 µM
CC50 (MDA-MB-231; [29]): 8.65 µM
TGI (MDA-MB-231; read-out: TGI): 3.93 µM
GI50 (MDA-MB-231; read-out: pGI50 (converted)): 1.78 µM
CC50 (MDA-MB-231; [30]): 8.71 µM
TGI (MDA-MB-231; read-out: pTGI (converted)): 3.89 µM
growth at 0.1 µM [3]: 100%
growth at 10 µM [4]: -77%
growth at 1 µM [5]: 75%
growth at 100 µM (NCI-H226 [6]): -89%
growth at 0.1 µM [7]: 91%
growth at 0.1 µM [8]: 90%
growth at 10 µM [9]: 42%
growth at 10 µM [10]: 19%
growth at 0.1 µM [11]: 98%
growth at 10 µM (NCI-H460): -5%
growth at 1 µM [12]: 88%
growth at 1 µM [13]: 92%
growth at 0.1 µM (T47D): 91%
growth at 0.01 µM (EKVX [14]): 92%
growth at 0.1 µM (U-251): 97%
growth at 0.01 µM [15]: 97%
growth at 0.01 µM [16]: 89%
GI50 ([17]; read-out: GI50): 2.63 µM
CC50 [17, 29]: 37.8 µM
TGI ([17]; read-out: TGI): 10.4 µM
GI50 ([17]; read-out: pGI50 (converted)): 2.63 µM
CC50 [17, 30]: 38 µM
TGI ([17]; read-out: pTGI (converted)): 10.5 µM
growth at 1 µM [18]: 95%
GI50 ([19]; read-out: GI50): 2.25 µM
CC50 [19, 29]: 20.1 µM
TGI ([19]; read-out: TGI): 5.48 µM
GI50 ([19]; read-out: pGI50 (converted)): 2.24 µM
CC50 [19, 30]: 20 µM
TGI ([19]; read-out: pTGI (converted)): 5.62 µM
growth at 0.01 µM [20]: 95%
growth at 10 µM [21]: 29%
growth at 0.1 µM [22]: 107%
growth at 10 µM (SK-MEL-5): -98%
growth at 10 µM [23]: 18%
GI50 (NCI-H226 [24]; read-out: GI50): 9.3 µM
CC50 (NCI-H226 [24]; [29]): 52.3 µM
TGI (NCI-H226 [24]; read-out: TGI): 22.7 µM
GI50 (NCI-H226 [24]; read-out: pGI50 (converted)): 9.33 µM
CC50 (NCI-H226 [24]; [30]): 52.5 µM
TGI (NCI-H226 [24]; read-out: pTGI (converted)): 22.9 µM
growth at 10 µM [25]: -61%
growth at 0.1 µM (Malme-3M): 95%
growth at 10 µM [26]: -44%
growth at 0.1 µM [27]: 102%
growth at 0.1 µM (KM12): 99%
GI50 (EKVX [28]; read-out: GI50): 2.72 µM
CC50 (EKVX [28]; [29]): 42.7 µM
TGI (EKVX [28]; read-out: TGI): 14.4 µM
GI50 (EKVX [28]; read-out: pGI50 (converted)): 2.69 µM
CC50 (EKVX [28]; [30]): 42.7 µM
TGI (EKVX [28]; read-out: pTGI (converted)): 14.5 µM
